Measurements from EPA's ToxRefDB 2.

What was measured:
[1] = test system: rat; settings: Subchronic oral toxicity in rodents, fischer, Feed, dose end: 13 week, group: systemic, systemic / clinical chemistry / alanine aminotransferase (alt/sgpt) / alanine aminotransferase (alt/sgpt) + systemic / clinical chemistry / …
[2] = test system: rat; settings: Prenatal developmental toxicity study, sprague dawley, Oral, Gavage/Intubation, dose end: 15 GD
[3] = test system: rat; settings: Subchronic oral toxicity in rodents, fischer, Feed, dose end: 13 week, group: systemic, systemic / in life observation / body weight / body weight gain + systemic / in life observation / food consumption / food consumption + …
[4] = test system: rat; settings: Prenatal developmental toxicity study, sprague dawley, Oral, Gavage/Intubation, dose end: 15 GD; remark: listed apart in the source
[5] = test system: rat; settings: Subchronic oral toxicity in rodents, fischer, Gavage/Intubation, dose end: 13 week, group: systemic
[6] = test system: mouse; settings: Subchronic oral toxicity in rodents, b6c3f1, Gavage/Intubation, dose end: 13 week, group: systemic
[7] = test system: mouse; settings: Chronic toxicity; b6c3f1; Oral; Gavage/Intubation; dose end: 2 year; group: systemic; systemic / pathology microscopic / kidney / necrosis + systemic / pathology microscopic / kidney / regeneration + systemic / pathology …
[8] = test system: rat; settings: Chronic toxicity, fischer, Oral, Gavage/Intubation, dose end: 2 year, group: systemic
[9] = test system: rat; settings: Sub-acute dermal toxicity, sprague dawley, Topical, dose end: 2 week, group: systemic, systemic / in life observation / body weight / body weight gain + systemic / in life observation / food consumption / food consumption
[10] = test system: rat; settings: Subchronic dermal toxicity, sprague dawley, Topical, dose end: 91 day, group: systemic, systemic / in life observation / clinical signs / skin ulceration
[11] = test system: rat; settings: Subchronic oral toxicity in rodents, fischer, Water, dose end: 13 week, group: systemic
[12] = test system: rat; settings: Sub-acute repeat dose toxicity, fischer, Oral, Water, dose end: 14 day, group: systemic
[13] = test system: rat; settings: Carcinogenicity; fischer; Oral; Water; dose end: 103 week; group: systemic; systemic / pathology microscopic / liver / neoplastic nodule + systemic / pathology microscopic / liver / cellular alteration + systemic / …
[14] = test system: mouse; settings: Sub-acute repeat dose toxicity, b6c3f1, Oral, Water, dose end: 14 day, group: systemic
[15] = test system: mouse; settings: Carcinogenicity, b6c3f1, Oral, Water, dose end: 103 week, group: systemic
[16] = test system: mouse; settings: Subchronic oral toxicity in rodents, b6c3f1, Water, dose end: 13 week, group: systemic
[17] = test system: rabbit; settings: Prenatal developmental toxicity study, new zealand white, Oral, Gavage/Intubation, dose end: 18 GD
[18] = test system: rabbit; settings: Prenatal developmental toxicity study, new zealand white, Oral, Gavage/Intubation, dose end: 18 GD; remark: listed apart in the source
[19] = test system: dog; settings: Chronic toxicity, beagle, Oral, Gavage/Intubation, dose end: 6 month, group: systemic
[20] = test system: rat; settings: Sub-acute repeat dose toxicity, sprague dawley, Oral, Gavage/Intubation, dose end: 4 week, group: systemic
[21] = test system: dog; settings: Sub-acute repeat dose toxicity; beagle; Oral; Gavage/Intubation; dose end: 4 week; group: systemic; systemic / in life observation / body weight / body weight gain + systemic / in life observation / clinical signs / abnormal feces + …
[22] = test system: mouse; settings: Subchronic oral toxicity in rodents, cd1, Gavage/Intubation, dose end: 3 month, group: systemic
[23] = test system: rat; settings: Fertility (Segment I), sprague dawley, Oral, Gavage/Intubation, dose end: 7 GD, group: parental
[24] = test system: rat; settings: Prenatal developmental toxicity study; sprague dawley; Oral; Gavage/Intubation; dose end: 17 GD; group: maternal; systemic / in life observation / body weight / body weight gain
[25] = test system: rat; settings: Chronic toxicity, sprague dawley, Oral, Gavage/Intubation, dose end: 6 month, group: systemic
[26] = test system: rat; settings: Prenatal developmental toxicity study; sprague dawley; Oral; Gavage/Intubation; dose end: 17 GD; group: maternal; systemic / in life observation / body weight / body weight + systemic / in life observation / food consumption / food consumption
[27] = group: developmental, developmental / developmental malformation / bone / exencephaly + developmental / developmental malformation / bone / thread-like + …
[28] = group: maternal, systemic / in life observation / body weight / body weight gain + systemic / in life observation / food consumption / food consumption
[29] = group: developmental, developmental / developmental malformation / bone / absent + developmental / developmental malformation / bone / bent + developmental / …
[30] = group: maternal, systemic / in life observation / body weight / body weight gain
[31] = systemic / pathology microscopic / intestine small / pigmentation + systemic / pathology microscopic / stomach / acanthosis + systemic / …
[32] = systemic / organ weight / kidney / absolute + systemic / organ weight / kidney / relative to body weight + systemic / organ weight / liver…
[33] = systemic / in life observation / body weight / body weight + systemic / pathology microscopic / kidney / hyperplasia + systemic / pathology …
[34] = systemic / pathology microscopic / intestine small / pigmentation + systemic / pathology microscopic / kidney / hemosiderosis + systemic / …
[35] = systemic / in life observation / body weight / body weight + systemic / in life observation / water consumption / water consumption + …
[36] = systemic / in life observation / water consumption / water consumption
[37] = systemic / in life observation / body weight / body weight + systemic / in life observation / body weight / body weight gain + systemic / in…
[38] = systemic / in life observation / body weight / body weight gain + systemic / in life observation / water consumption / water consumption + …
[39] = systemic / pathology microscopic / kidney / nephropathy
[40] = systemic / pathology microscopic / kidney / nephropathy + systemic / pathology microscopic / blood / lymphoma nos
[41] = systemic / in life observation / body weight / body weight + systemic / pathology microscopic / liver / hyperplasia + systemic / pathology …
[42] = group: developmental, developmental / developmental malformation / bone / incomplete ossification + systemic / in life observation / body weight / fetal weight
[43] = group: maternal, systemic / in life observation / body weight / body weight + systemic / in life observation / body weight / body weight gain + systemic / in…
[44] = group: developmental, systemic / in life observation / body weight / fetal weight
[45] = systemic / in life observation / clinical signs / emesis + systemic / in life observation / clinical signs / salivation
[46] = systemic / clinical chemistry / triglycerides / triglycerides + systemic / in life observation / body weight / body weight gain + systemic…
[47] = systemic / in life observation / body weight / body weight gain + systemic / in life observation / clinical signs / abnormal respiratory …
[48] = systemic / clinical chemistry / alanine aminotransferase (alt/sgpt) / alanine aminotransferase (alt/sgpt) + systemic / clinical chemistry / …
[49] = systemic / in life observation / clinical signs / abnormal feces + systemic / in life observation / clinical signs / body surface staining…
[50] = systemic / in life observation / body weight / body weight gain + systemic / in life observation / clinical signs / anogenital staining + …
[51] = systemic / in life observation / body weight / body weight gain + systemic / in life observation / clinical signs / red or crusty deposits …
[52] = systemic / in life observation / body weight / body weight gain + systemic / in life observation / clinical signs / [other] + systemic / in …

CC(C)[NH3+].O=C([O-])COc1ccc(Cl)cc1Cl [2,4-D, isopropylamine salt]
LEL [1]: 187 mg/kg/day
LOAEL [1]: 187 mg/kg/day
NEL [1]: 28 mg/kg/day
NOAEL [1]: 28 mg/kg/day
LEL [2, 27]: 190 mg/kg/day
LOAEL [2, 27]: 190 mg/kg/day
NEL [2, 27]: 65 mg/kg/day
NOAEL [2, 27]: 65 mg/kg/day
LEL [2, 28]: 190 mg/kg/day
LOAEL [2, 28]: 190 mg/kg/day
NEL [2, 28]: 65 mg/kg/day
NOAEL [2, 28]: 65 mg/kg/day
LEL [3]: 127 mg/kg/day
LOAEL [3]: 127 mg/kg/day
NEL [3]: 19 mg/kg/day
NOAEL [3]: 19 mg/kg/day
LEL [4, 29]: 100 mg/kg/day
LOAEL [4, 29]: 100 mg/kg/day
NEL [4, 29]: 32.5 mg/kg/day
NOAEL [4, 29]: 32.5 mg/kg/day
LEL [4, 30]: 32.5 mg/kg/day
LOAEL [4, 30]: 32.5 mg/kg/day
NEL [4, 30]: < 32.5 mg/kg/day
NOAEL [4, 30]: < 32.5 mg/kg/day

Cl.Cl.Nc1ccc(O)c(N)c1 [2,4-Diaminophenol dihydrochloride]
LOAEL ([5]; systemic / organ weight / kidney / relative to body weight + systemic / pathology microscopic / kidney / necrosis): 25 mg/kg/day
NOAEL ([5]; systemic / organ weight / kidney / relative to body weight + systemic / pathology microscopic / kidney / necrosis + systemic / in life …): 12 mg/kg/day
LEL [5, 31]: 12 mg/kg/day
NEL [5, 31]: < 12 mg/kg/day
LEL [6, 32]: 5 mg/kg/day
NEL [6, 32]: < 5 mg/kg/day
NOAEL [6, 32]: 19 mg/kg/day
LOAEL ([6]; systemic / pathology microscopic / kidney / regeneration): 38 mg/kg/day
LEL [7]: 19 mg/kg/day
LOAEL [7]: 19 mg/kg/day
NEL [7]: < 19 mg/kg/day
NOAEL [7]: < 19 mg/kg/day
LOAEL [8, 33]: 25 mg/kg/day
NOAEL [8, 33]: 12.5 mg/kg/day
LEL [8, 34]: 12.5 mg/kg/day
NEL [8, 34]: < 12.5 mg/kg/day

CC(O)CSS(C)(=O)=O (stereo not given) [2-Hydroxypropyl methanethiosulfonate]
LEL [9]: 100 mg/kg/day
LOAEL [9]: 100 mg/kg/day
NEL [9]: < 100 mg/kg/day
NOAEL [9]: < 100 mg/kg/day
LEL [10]: 10 mg/kg/day
LOAEL [10]: 10 mg/kg/day
NEL [10]: < 10 mg/kg/day
NOAEL [10]: < 10 mg/kg/day

Cl.Cl.Nc1ccc(Cc2ccc(N)cc2)cc1 [4,4'-Methylenedianiline dihydrochloride]
LOAEL [11, 35]: 20 mg/kg/day
NEL [11, 35]: 5 mg/kg/day
NOAEL [11, 35]: 10 mg/kg/day
LEL [11, 36]: 10 mg/kg/day
LOAEL [12, 37]: 40 mg/kg/day
NOAEL [12, 37]: 20 mg/kg/day
LEL [12, 36]: 10 mg/kg/day
NEL [12, 36]: < 10 mg/kg/day
LEL [13]: 9 mg/kg/day
LOAEL [13]: 9 mg/kg/day
NEL [13]: < 9 mg/kg/day
NOAEL [13]: < 9 mg/kg/day
LOAEL ([14]; systemic / in life observation / body weight / body weight gain + systemic / in life observation / water consumption / water consumption): 120 mg/kg/day
LEL [14, 38]: 120 mg/kg/day
NEL [14, 38]: 60 mg/kg/day
NOAEL [14, 38]: 60 mg/kg/day
LOAEL [15, 39]: 19 mg/kg/day
NOAEL [15, 39]: < 19 mg/kg/day
LEL [15, 40]: 19 mg/kg/day
NEL [15, 40]: < 19 mg/kg/day
LOAEL [16, 41]: 60 mg/kg/day
NOAEL [16, 41]: 30 mg/kg/day
LEL [16, 36]: 3.75 mg/kg/day
NEL [16, 36]: < 3.75 mg/kg/day

CN1CCN(Cc2cc(-c3ccc4[nH]c(=O)oc4c3)co2)[C@@H](c2ccc(F)cc2)C1.Cl.O [AVE8488]
LEL [17, 42]: 150 mg/kg/day
LOAEL [17, 42]: 150 mg/kg/day
NEL [17, 42]: 50 mg/kg/day
NOAEL [17, 42]: 50 mg/kg/day
LEL [17, 43]: 150 mg/kg/day
LOAEL [17, 43]: 150 mg/kg/day
NEL [17, 43]: 50 mg/kg/day
NOAEL [17, 43]: 50 mg/kg/day
LEL [18, 44]: 100 mg/kg/day
LOAEL [18, 44]: 100 mg/kg/day
NEL [18, 44]: 50 mg/kg/day
NOAEL [18, 44]: 50 mg/kg/day
LEL [18, 28]: 100 mg/kg/day
LOAEL [18, 28]: 100 mg/kg/day
NEL [18, 28]: 50 mg/kg/day
NOAEL [18, 28]: 50 mg/kg/day
NOAEL ([19]; systemic / in life observation / clinical signs / emesis + systemic / clinical chemistry / albumin / albumin + systemic / clinical chemistry…): 5 mg/kg/day
LEL [19, 45]: 1 mg/kg/day
NEL [19, 45]: < 1 mg/kg/day
LOAEL ([19]; systemic / in life observation / clinical signs / emesis + systemic / in life observation / clinical signs / salivation + systemic / …): 20 mg/kg/day
LEL ([20]; systemic / clinical chemistry / triglycerides / triglycerides + systemic / in life observation / body weight / body weight gain): 5 mg/kg/day
NEL [20, 46]: 0.25 mg/kg/day
LOAEL [20, 47]: 50 mg/kg/day
NOAEL [20, 47]: 5 mg/kg/day
LEL [21]: 20 mg/kg/day
LOAEL [21]: 20 mg/kg/day
NEL [21]: 5 mg/kg/day
NOAEL [21]: 5 mg/kg/day
LOAEL [22, 48]: > 2000 mg/kg/day
NOAEL [22, 48]: ≥ 2000 mg/kg/day
LEL [22, 49]: 50 mg/kg/day
NEL [22, 49]: < 50 mg/kg/day
LOAEL [23, 50]: > 150 mg/kg/day
NOAEL [23, 50]: ≥ 150 mg/kg/day
LEL [23, 51]: 1 mg/kg/day
NEL [23, 51]: < 1 mg/kg/day
LEL [24]: 3.7 mg/kg/day
LOAEL [24]: 25 mg/kg/day
NEL [24]: 0.79 mg/kg/day
NOAEL [24]: 3.7 mg/kg/day
LOAEL [25, 46]: 7 mg/kg/day
NOAEL [25, 46]: 1 mg/kg/day
LEL [25, 52]: 1 mg/kg/day
NEL [25, 52]: < 1 mg/kg/day
LEL [26]: 10 mg/kg/day
LOAEL [26]: 10 mg/kg/day
NEL [26]: 1 mg/kg/day
NOAEL [26]: 1 mg/kg/day
